Results reported in patent US20100004403A1, “High-Molecular Weight Conjugate of Combretastatins” (priority 2006, published 2010).

Assays:
[1] = system: Mouse colon cancer, Colon26; assay: Antitumor effect, Test Example 2: subcutaneously transplanted Colon26 in mice, single intravenous administration; format: in vivo, mouse (female CDF1 mice); details: single i.v.
Experimental: (§1) Mouse colon cancer, Colon26, maintained by serial subcutaneous subculture in mice was minced into about 2-mm square fragments, and the fragments were subcutaneously transplanted on the dorsal part of female CDF1 mice with a trocar. Seven days after tumor transplantation, the high-molecular weight conjugate of the present invention (compound 1) or a control drug (combretastatin A-4) was administered a single time intravenously to the mouse tail vein, at a dose respectively calculated on the basis of combretastatin A-4. The control is a group not given the drug. Compound 1 was dissolved in a 5% glucose injection solution and used. Combretastatin A-4 was dissolved in dimethylsulfoxide and Cremophor EL (manufactured by Sigma-Aldrich Company), and was used after diluted with a 5% glucose injection solution at the time of use. After the administration, the major axis (L mm) and the minor axis (W mm) of the tumor were measured using a caliper, and the volume of tumor was calculated by the formula: (L×W^2)/2.

[2] = system: Mouse colon cancer, Colon26; assay: Antitumor effect, Test Example 3: subcutaneously transplanted Colon26 in mice, single intravenous administration; format: in vivo, mouse (female CDF1 mice); details: 200 mg/kg (as combretastatin A-4), single i.v.
Experimental: as §1, with “1-mm” for “2-mm”, “2 and compound 3)” for “1)”, “A-4 phosphoric acid ester) synthesized by a method according to Non-Patent Document 1” for “A-4)”, “2, compound 3 and the control drug were all” for “1 was”, “used.” for “used. Combretastatin A-4 was dissolved in dimethylsulfoxide and Cremophor EL (manufactured by Sigma-Aldrich Company), and was used after diluted with a 5% glucose injection solution at the time of use.”

Row | SMILES | relative tumor volume based on the tumor volume on the day of initiation of administration ([1]; 200 mg/kg (as combretastatin A-4), day 0 after administration) | relative tumor volume based on the tumor volume on the day of initiation of administration ([1]; 200 mg/kg (as combretastatin A-4), day 2 after administration) | relative tumor volume based on the tumor volume on the day of initiation of administration ([1]; 200 mg/kg (as combretastatin A-4), day 4 after administration) | relative tumor volume based on the tumor volume on the day of initiation of administration ([1]; 200 mg/kg (as combretastatin A-4), day 7 after administration) | relative tumor volume based on the tumor volume on the day of initiation of administration ([1]; 200 mg/kg (as combretastatin A-4), day 8 after administration) | relative tumor volume based on the tumor volume on the day of initiation of administration ([1]; 400 mg/kg, day 0 after administration) | relative tumor volume based on the tumor volume on the day of initiation of administration ([1]; 400 mg/kg, day 2 after administration) | relative tumor volume based on the tumor volume on the day of initiation of administration ([1]; 400 mg/kg, day 4 after administration) | relative tumor volume based on the tumor volume on the day of initiation of administration ([1]; 400 mg/kg, day 7 after administration) | relative tumor volume based on the tumor volume on the day of initiation of administration ([1]; 400 mg/kg, day 8 after administration) | relative tumor volume based on the tumor volume on the day of initiation of administration ([2]; day 0 after administration) | relative tumor volume based on the tumor volume on the day of initiation of administration ([2]; day 2 after administration) | relative tumor volume based on the tumor volume on the day of initiation of administration ([2]; day 4 after administration) | relative tumor volume based on the tumor volume on the day of initiation of administration ([2]; day 7 after administration) | relative tumor volume based on the tumor volume on the day of initiation of administration ([2]; day 9 after administration)
1 | COc1ccc(/C=C\c2cc(OC)c(OC)c(OC)c2)cc1O [Combretastatin A-4, combretastatin A-4] | 1.00 | 1.77 | 3.73 | 9.25 | 12.03 | 1.00 | 1.24 | 2.21 | 5.09 | 6.41 |  |  |  |  | 
2 | COc1ccc(/C=C\c2cc(OC)c(OC)c(OC)c2)cc1OP(=O)(O)O [Combretastatin A-4 phosphoric acid ester, combretastatin A-4 phosphoric acid ester] |  |  |  |  |  |  |  |  |  |  | 1.00 | 1.57 | 3.12 | 9.33 | 10.11
